The subject of data set [1] is Panc02 cells. Nature of the data set: MTT cell viability, Panc02. It is filed as cell-based. To be noted: Mus musculus, 24 h treatment, viability relative to vehicle. As for the experimental part:
(§1) Determination of cell growth was performed using the MTT assay at 24 h. On day 1, pancreatic cancer cell lines were plated at a density of 2 × 10^4 cells/well in black clear-bottom 96-well plates for 24 h prior to treatment in a volume of 100 μL. On day 2, the cells were treated for 24 h with the various drugs concentration (1 μM-100 μM). Untreated cells served as a control. The various drug-solvents (EtOH, DMSO) were added in each control to evaluate a possible solvent cytotoxicity. After the established incubation time with drugs (24 h), MTT (0.5 mg/ml) was added to each well, and after 3–4 h incubation at 37 °C, the supernatant was removed. The formazan crystals were solubilized using 100 μl of DMSO/EtOH (1:1) and the absorbance values at 570 and 630 nm were determined on the multi-mode microplate reader (BioTek instruments, Winooski, VT). Different drug concentrations were assayed in triplicates.
(§2) Statistical analyses and data plotting were performed using GraphPad Prism software version 6.03 (San Diego, CA). Results were expressed as mean ± standard error of the mean of at least 3 biological replicates. EC50 values were calculated by curve fitting normalized viability versus drug concentration. Differences in viability, caspase-3 activity, and tumor volume were analyzed using two-way ANOVA to identify differences and confirmed with paired two tailed t-tests. Mann-Whitney test was used to compare the difference in CBC and biochemistry analyses. Kaplan-Meier survival analyses were used to assess differences between treatment groups and were compared using a log-rank test. A p-value < 0.05 was considered significant for all analyses.

The next data set has as its system KP02 cells. Briefly: MTT cell viability, KP02. The conditions noted are these: 24 h treatment, viability relative to vehicle. The class given is cell-based, mouse. How it is done:
as §1, §2

The next data set has as its system KCKO cells. Nature of the data set: MTT cell viability, KCKO. It is filed as cell-based. To be noted: Mus musculus, 24 h treatment, viability relative to vehicle. How it is done: as §1, §2
The next data set has as its system MIAPaCa-2 cells. Nature of the data set: MTT cell viability, MIAPaCa-2. The conditions noted are these: Homo sapiens, MIA PaCa-2, 24 h treatment, viability relative to vehicle. The class given is cell-based. How it is done: as §1, §2
Data set [2] has as its system BxPC3 cells. Nature of the data set: MTT cell viability, BxPC3. The class given is cell-based, human. The conditions noted are these: 24 h treatment, viability relative to vehicle. As for the experimental part: as §1, §2
For another data set, the system named is AsPC-1 cells. Nature of the data set: MTT cell viability, AsPC-1. The class given is cell-based. The conditions noted are these: Homo sapiens, ASPC1, 24 h treatment, viability relative to vehicle. How it is done: as §1, §2
The test system of another data set is Panc-1 cells. Briefly: MTT cell viability, Panc-1. It is filed as cell-based. The conditions noted are these: Homo sapiens, 24 h treatment, viability relative to vehicle. As for the experimental part: as §1, §2
The subject of a further data set is caspase-3. Briefly: Caspase-Glo caspase-3 activity in Panc02 cells. The class given is cell-based, mouse. As for the experimental part:
Caspase-3 activity was measured in Panc02 cell lines with a Caspase-Glo® Assay Systems (Promega) according to protocol in which the reagent contain luminogenic caspase substrates that cleaved by activated caspase. […] The contents were then mixed using plate shaker for 30 s, and incubated at room temperature for 90 min. Luminescence signal was measured using multi-mode microplate reader (BioTek). Assay was performed in triplicates, and caspase activity was plotted compared cells treated with DMSO as a control.

The test system of a further data set is AsPC1 cells. Briefly: MitoSOX Red mitochondrial superoxide by flow cytometry, AsPC1. It is filed as cell-based, human. The conditions noted are these: 50 μM, 2 h. How it is done:
(§3) MitoSOX™ Red reagent is a novel fluorogenic dye specifically targeted to mitochondria in live cells. Oxidation of MitoSOX™ Red reagent by superoxide produces red fluorescence. Mitochondrial superoxide is generated as a byproduct of oxidative phosphorylation. […] MitoSOX™ Red reagent is readily oxidized by superoxide but not by other ROS- or reactive nitrogen species (RNS)–generating systems. Panc02, AsPC-1, KP-2 or BxPC3 cells were seeded into 12-well plates 24 h before treatment with sigma-2 ligands (50 μM) for 2 h at 37°C in presence or absence of α-tocopherol (100 μM) followed by staining with MitoSOX™ Red (5 μM). Two hours after red dye addition, the cells were washed twice with PBS and harvested with trypsin/EDTA buffer. The cells were washed twice with PBS before analysis with FACSCalibur (BD Bioscience, San Jose, CA). The oxidation product of MitoSOX™ Red by mitochondrial superoxide fluoresces with an emission maximus of 580 nm and was detected in the FL3 channel. Experiment was performed in triplicates.
On the technique in general: In flow cytometry, cells or beads pass a laser one at a time.

For data set [3], the system named is BxPC3 cells. Nature of the data set: MitoSOX Red mitochondrial superoxide by flow cytometry, BxPC3. The class given is cell-based, human. To be noted: 50 μM, 2 h. How it is done:
as §3

The subject of the next data set is Panc02 tumors. Briefly: In vivo tumor growth and survival, Panc02 tumors in C57BL/6 mice. To be noted: for Effect on tumor volume (in words): daily i.p. treatment, compared to vehicle or gemcitabine. How it is done: In this pre-clinical model, we utilized the Panc02 cell line, which is weakly immunogenic in C57BL/6 mice and aggressive with a subcutaneous inoculum of 1 × 10^5 cells being lethal within 6–8 weeks. In vivo studies with mice were performed to compare the effect of sigma-2 ligands with gemcitabine. Mice treated with vehicle alone (a mixture of 5% DMSO, 5% EtOH, and 10% Cremophor in H2O) served as the control cohort. Female C57BL/6 mice (10 weeks old, National Cancer Institute Laboratories) were injected in the right flank with 200 μL of a single-cell suspension of Panc02 cells in non-supplemented RPMI medium (1 × 10^6 cells per mouse). Treatment began when the mean tumor diameter was ~ 5 mm. […] Tumors were measured three times weekly in two dimensions with a digital caliper, and tumor volumes were calculated by the standard formula of Tumor Volume = Length x Width^2 × 0.5. All mice were euthanized when tumors reached a diameter of 15 mm or had ulcerated.

Data set [4] in a line: Toxicity evaluation on mice not bearing tumor (CBC, serum chemistry, pathology). It is filed as in vivo, C57BL/6 mice. The conditions noted are these: for Off-target effects by necropsy and laboratory evaluations: naïve C57BL/6 mice, continuous daily treatment. As for the experimental part: […] Mice from each treatment cohort were assessed for pathologic evaluation (Digestive Diseases Research Core Center at our institution). Blood was collected for complete blood count (CBC) and biochemical analysis (AST, ALT, BUN, total protein, glucose and Cr). Organs were examined grossly and histologically.

A further data set deals with sigma-2 receptor. The conditions noted are these: read-out: Affinity (Ki) σ2, cited from earlier work.
The subject of data set [5] is Panc02 cells. Briefly: ROS interference in cell viability (MTT with antioxidants). It is filed as cell-based, mouse. The conditions noted are these: 24 h. As for the experimental part:
The interference of ROS in cell viability was indirectly determined by MTT assay reported above at 24 h. On day 1, Panc02 cells were plated at a density of 2 × 10^4 cells/well in opaque 96-well, clear-bottom plates 24 h prior to treatment. On day 2, cells were treated with the drugs (50 μM) in the presence or absence of α-tocopherol (100 μM) or N-Acetyl-L-cysteine (100 μM). After incubation (24 h) with drugs, MTT assay was performed as above.

Data set [6] deals with Panc02 cells. Briefly: MitoSOX Red mitochondrial superoxide by flow cytometry, Panc02. The class given is cell-based, mouse. To be noted: 2 h. How it is done: as §3

Each structure is given as a SMILES string. Read-outs that look alike come from different tables or passages of the source.

In general, EC50 refers to the concentration giving half of the maximal effect. By Ki is commonly meant the equilibrium dissociation constant of an inhibitor or competing ligand from its target.

Consider `c1ccc2c(c1)c1ccccc1n2CCCN1CCN(C2CCCCC2)CC1` [F281, 1-Cyclohexyl-4-[3-(9H-carbazol-9-yl)propyl]piperazine], for which the EC50 is 37 µM with Panc02 cells [1]; 49 µM with KP02 cells; about 45 µM in the data set with KP02 cells (Mus musculus, 24 h); 62 µM in the data set on KCKO cells; 29 µM in the data set on MIAPaCa-2 cells; 42 µM in the data set on BxPC3 cells [2]. Also, the EC50 in the data set on BxPC3 cells [2] (Homo sapiens, BXPC-3, 24 h) is about 45 µM; in the data set on AsPC-1 cells, 98 µM; in the data set on Panc-1 cells, over 100 µM. In addition, the “Caspase-3 activation (in words)” value in the data set with caspase-3 (200 μM, 5 h, compared to DMSO control) is “did not activate at all”. In the data set on AsPC1 cells, the “Mitochondrial superoxide generation in AsPC1” value is listed as “generated some mitochondrial superoxide”. Besides, in the data set with BxPC3 cells [3], the “Mitochondrial superoxide generation in BxPC3” value is “generated some mitochondrial superoxide”. Moreover, in the data set on Panc02 tumors (Panc02 s.c. in female C57BL/6), the “Effect on tumor volume (in words)” value is on record as “did not confer a significantly different tumor volume than vehicle alone”. Moreover, the “Off-target effects by necropsy and laboratory evaluations” value in data set [4] is given as “no major off-target effects”. The Ki at sigma-2 receptor (ref Ferorelli et al., 2007 [27]) is 0.0126 µM.

As to `Cc1c(C)c2c(c(C)c1O)CC[C@@](C)(CCC[C@H](C)CCC[C@H](C)CCCC(C)C)O2` [α-tocopherol, reference compound], the “Effect on caspase activation caused by PB221 or PB282” value with caspase-3 (Z-DEVD-FMK 1 μM or α-tocopherol given before PB221, PB282 (200 μM, 5 h)) is listed as “abrogates caspase-3 dependent cleavage”. The “Protection against sigma-2 ligand induced cell death (Panc02 viability)” value in the data set on Panc02 cells [5] (antioxidant 100 μM one hour prior to sigma-2 ligands 50 μM) was “protected against sigma-2 receptor ligands induced cell death”. Further, in the data set on Panc02 cells [6] (all pancreatic cancer cell lines tested (Panc02, AsPC-1, KP02, BxPC3), sigma-2 ligands 50 μM, with α-tocopherol), the “Effect on mitochondrial superoxide production following sigma-2 ligands treatment” value is given as “strongly decreased”.

On to `Fc1cccc(F)c1[C@H]1CC[C@@H](N2CCN(C3CCCCC3)CC2)CC1` [PB282], for which the EC50 was over 100 µM with Panc02 cells [1]; over 100 µM in the data set on KP02 cells (Mus musculus, 24 h); 90 µM with KCKO cells; 51 µM in the data set with MIAPaCa-2 cells; over 100 µM in the data set with BxPC3 cells [2] (Homo sapiens, BXPC-3, 24 h); over 100 µM in the data set on AsPC-1 cells. The EC50 in the data set with Panc-1 cells was over 100 µM. The “Increase of caspase-3 activity compared to cells treated with DMSO vehicle” value with caspase-3 (200 μM, 5 h) turned out to be 11.8 fold. Also, in the data set with Panc02 cells [5] (Panc02 cells, ligand 50 μM with NAC 100 μM), the “Cell death on co-treatment with NAC” value is on record as “even higher levels of cell death”. Besides, the “Increase in MitoSOX fluorescence intensity compared to cells treated with DMSO” value in the data set with Panc02 cells [6] (Panc02 cells, 50 μM) is given as 6.7 fold. The “Effect on tumor volume (in words)” value in the data set with Panc02 tumors (Panc02 s.c. in female C57BL/6) is “decreased tumor volume similar to gemcitabine alone”. The “Mean tumor volume following conclusion of treatment” value in the data set with Panc02 tumors (Panc02 s.c. in female C57BL/6, i.p. daily for two weeks (gemcitabine once weekly), vehicle mean = 924 mm^3) was 483 mm^3. This molecule also gave a Median survival in the data set with Panc02 tumors (Panc02 tumor-bearing C57BL/6 mice, treatment discontinued on day 15, DMSO (vehicle) 23 days) of 29 days. The “Off-target effects by necropsy and laboratory evaluations” value in data set [4] is listed as “no major off-target effects”. This molecule came in with a Creatinine in data set [4] (not tumor-bearing C57BL/6 mice, n = 3, daily i.p., 5 days, control 0.34 ± 0.02) of 0.35 ± 0.03 mg/dL. The AST in [4] (not tumor-bearing C57BL/6 mice, n = 3, daily i.p., 5 days, control 5.6 ± 0.05) is 5.5 ± 0.07 μ/L. Also, the RBC in [4] (not tumor-bearing C57BL/6 mice, n = 3, daily i.p., 5 days, control 7.14 ± 0.1) is on record as 9.91 ± 0.31 10^6/μL. Also, the WBC in data set [4] (not tumor-bearing C57BL/6 mice, n = 3, daily i.p., 5 days, control 10.58 ± 0.2) is given as 5.78 ± 0.78 10^3/μL. The molecule further showed an HGB in data set [4] (not tumor-bearing C57BL/6 mice, n = 3, daily i.p., 5 days, control 10.7 ± 0.7) of 15 ± 0.4 g/dL. Also, in [4] (not tumor-bearing C57BL/6 mice, n = 3, daily i.p., 5 days, control 15 ± 0.54), the MCH is 15.15 ± 0.05 pg. The molecule also came in with a BUN in data set [4] (not tumor-bearing C57BL/6 mice, n = 3, daily i.p., 5 days, control 27 ± 0.4) of 24.5 ± 0.5 mg/dL. The MCHC in data set [4] (not tumor-bearing C57BL/6 mice, n = 3, daily i.p., 5 days, control 29.2 ± 1.21) stood at 29.4 ± 0.3%. For the same molecule, the HCT in data set [4] (not tumor-bearing C57BL/6 mice, n = 3, daily i.p., 5 days, control 36.6 ± 0.08) is reported as 51.1 ± 1.9%. The MCV in data set [4] (not tumor-bearing C57BL/6 mice, n = 3, daily i.p., 5 days, control 51.2 ± 0.32) came to 51.55 ± 0.35 fL. Further, the ALT in data set [4] (not tumor-bearing C57BL/6 mice, n = 3, daily i.p., 5 days, control 260 ± 21) is recorded as 221 ± 63 μ/L. The Platelets in data set [4] (not tumor-bearing C57BL/6 mice, n = 3, daily i.p., 5 days, control 486 ± 67) is 649.5 ± 167.5 10^3/μL. In addition, the Ki on sigma-2 receptor (ref Abate, et al., 2011 [28]) is 0.0141 µM.
